Results taken from patent publication US10052310B2, “Separase inhibitors and uses thereof” (Baylor College of Medicine, priority 2013, dated 2018).
“Also recorded” adds a separate entry of the source.

Legend:
[1] = system: human cancer cell lines; assay: MTT assay, summary over all cell lines; assay type: cell-based; conditions: all cell lines of Table 1, 72 h, read-out: range of IC50 over the different cell lines
Method: Applicants used the MTT assay to test the inhibitory effect of Sepin-1 on the growth of a variety of human cancer cell lines, including leukemia, breast cancer and neuroblastoma.
(§1) The inhibitory effect of Sepin-1 on cell growth was assayed using the 3-(4,5-dimethylthiazol-2yl)-2,5-diphenyl-tetrazolium bromide (MTT) colorimetric dye reduction method (Cancer Chemother. Pharmacol., 2006, 58, 13-23). One hundred thirty-five μl of exponentially growing cancer cells were plated at a density of 0.4-1.0×10^5 cells/well in a 96-well microtiter plate. After 16 h, Sepin-1 at specified concentrations was added to each well. After 72 h of continuous drug exposure, 15 μl of 5 mg/ml MTT was added to each well and the plates were incubated for 4 h at 37° C. Medium was replaced with 150 μl of DMSO to solubilize the formazan, and the optical density (OD) was measured at 550 nm using a microplate spectrophotometer (Anthos Analytical, Durham, N.C., USA). Cell viability was calculated by subtracting the background OD of media alone from the OD of test wells, then dividing by the OD of the control (untreated) wells. Replicates of 3 wells were used for each drug concentration. The in vitro cytotoxicity assay was repeated once and the IC50 reported was the average of two independent experiments.

[2] = system: MC1 triple-negative breast tumor xenograft; assay: Growth inhibition of patient-derived xenograft MC1; assay type: in vivo, SCID-beige mice; conditions: 10 mg/kg intraperitoneal injection, three week treatment
Text: Patient-derived xenograft (PDX) lines MC1 (ER− PR− HER2−) (Proc Natl Acad Sci USA. 100, 2003, 3983-3988) and BCM-5471 (ER− PR− HER2−) (Cancer Res. 73, 2013, 4885-4897) were maintained as described (Cancer Res. 73, 2013, 4885-4897) by serial transplantation into SCID Beige immunocompromised host mice whose endogenous mammary epithelium was removed surgically (Cancer Res. 19, 1959, 515-20).
For treatment studies, MCF7 xenografts (ER+ PR+ HER2−) were generated by injection of one million cultured cells grown under standard in vitro conditions as previously described (Proc. Natl. Acad. Sci. U. S. A 105, 2008, 13033-13038). Donor tumors for PDX lines MC1 and BCM-5471 were divided into small fragments and retransplanted into the fat pat of recipient SCID Beige mice (5 mice per group). When the tumors reached approximately ˜200 mg, mice were treated with either vehicle or Sepin-1. Sepin-1 was injected at dose of 10 mg/kg daily for 5 days a week for 3 weeks. […] Vehicle injected mice served as controls. Size of the xenografts were measured every four days using calipers and tumor weight was estimated using the guidelines by NCI for xenograft evaluation (http://ncifrederick.cancer.gov/Lasp/Acuc/Frederick/Media/Documents/ACUC14.pdf). After 3 weeks treatment, the tumors were harvested and fixed in 10% Buffed Formalin Phosphate (Fisher Scientific, Pittsburgh, Pa.) overnight. […]

[3] = system: pediatric GBM tumor (#4687) orthotopic xenograft; assay: Survival analysis, orthotopic xenograft of pediatric GBM tumor; assay type: in vivo, SCID-beige mice; conditions: 10 mg/kg daily ip, 5 days a week, 4 weeks, n=6/group
Method: FIG. 10 provides data relating to separase overexpression in Pediatric glioblastoma (GBM) and the effect of Sepin-1 in inhibiting the growth of glioblastoma cells in vitro and in vivo. […] SCID-beige mice after two weeks of transplantation were treated at a dose of 10 mg/kg daily ip for 5 days a week for 4 weeks with either Sepin-1 or vehicle (n=6/group).

[4] = system: MCF7; assay: MTT in vitro cytotoxicity assay; assay type: cell-based, human
Method: as §1

[5] = target: T1, Separase (Homo sapiens, UniProt Q14674); assay: In vitro cleavage of Myc-Rad21 assay; assay type: biochemical; conditions: Sepin-1 50 μm; in vitro transcribed and translated Myc-Rad21
T1 construct: made in house; host or cells: 293T cells; released from IgG-Agarose by TEV protease
T1 sequence (Q14674 whole entry): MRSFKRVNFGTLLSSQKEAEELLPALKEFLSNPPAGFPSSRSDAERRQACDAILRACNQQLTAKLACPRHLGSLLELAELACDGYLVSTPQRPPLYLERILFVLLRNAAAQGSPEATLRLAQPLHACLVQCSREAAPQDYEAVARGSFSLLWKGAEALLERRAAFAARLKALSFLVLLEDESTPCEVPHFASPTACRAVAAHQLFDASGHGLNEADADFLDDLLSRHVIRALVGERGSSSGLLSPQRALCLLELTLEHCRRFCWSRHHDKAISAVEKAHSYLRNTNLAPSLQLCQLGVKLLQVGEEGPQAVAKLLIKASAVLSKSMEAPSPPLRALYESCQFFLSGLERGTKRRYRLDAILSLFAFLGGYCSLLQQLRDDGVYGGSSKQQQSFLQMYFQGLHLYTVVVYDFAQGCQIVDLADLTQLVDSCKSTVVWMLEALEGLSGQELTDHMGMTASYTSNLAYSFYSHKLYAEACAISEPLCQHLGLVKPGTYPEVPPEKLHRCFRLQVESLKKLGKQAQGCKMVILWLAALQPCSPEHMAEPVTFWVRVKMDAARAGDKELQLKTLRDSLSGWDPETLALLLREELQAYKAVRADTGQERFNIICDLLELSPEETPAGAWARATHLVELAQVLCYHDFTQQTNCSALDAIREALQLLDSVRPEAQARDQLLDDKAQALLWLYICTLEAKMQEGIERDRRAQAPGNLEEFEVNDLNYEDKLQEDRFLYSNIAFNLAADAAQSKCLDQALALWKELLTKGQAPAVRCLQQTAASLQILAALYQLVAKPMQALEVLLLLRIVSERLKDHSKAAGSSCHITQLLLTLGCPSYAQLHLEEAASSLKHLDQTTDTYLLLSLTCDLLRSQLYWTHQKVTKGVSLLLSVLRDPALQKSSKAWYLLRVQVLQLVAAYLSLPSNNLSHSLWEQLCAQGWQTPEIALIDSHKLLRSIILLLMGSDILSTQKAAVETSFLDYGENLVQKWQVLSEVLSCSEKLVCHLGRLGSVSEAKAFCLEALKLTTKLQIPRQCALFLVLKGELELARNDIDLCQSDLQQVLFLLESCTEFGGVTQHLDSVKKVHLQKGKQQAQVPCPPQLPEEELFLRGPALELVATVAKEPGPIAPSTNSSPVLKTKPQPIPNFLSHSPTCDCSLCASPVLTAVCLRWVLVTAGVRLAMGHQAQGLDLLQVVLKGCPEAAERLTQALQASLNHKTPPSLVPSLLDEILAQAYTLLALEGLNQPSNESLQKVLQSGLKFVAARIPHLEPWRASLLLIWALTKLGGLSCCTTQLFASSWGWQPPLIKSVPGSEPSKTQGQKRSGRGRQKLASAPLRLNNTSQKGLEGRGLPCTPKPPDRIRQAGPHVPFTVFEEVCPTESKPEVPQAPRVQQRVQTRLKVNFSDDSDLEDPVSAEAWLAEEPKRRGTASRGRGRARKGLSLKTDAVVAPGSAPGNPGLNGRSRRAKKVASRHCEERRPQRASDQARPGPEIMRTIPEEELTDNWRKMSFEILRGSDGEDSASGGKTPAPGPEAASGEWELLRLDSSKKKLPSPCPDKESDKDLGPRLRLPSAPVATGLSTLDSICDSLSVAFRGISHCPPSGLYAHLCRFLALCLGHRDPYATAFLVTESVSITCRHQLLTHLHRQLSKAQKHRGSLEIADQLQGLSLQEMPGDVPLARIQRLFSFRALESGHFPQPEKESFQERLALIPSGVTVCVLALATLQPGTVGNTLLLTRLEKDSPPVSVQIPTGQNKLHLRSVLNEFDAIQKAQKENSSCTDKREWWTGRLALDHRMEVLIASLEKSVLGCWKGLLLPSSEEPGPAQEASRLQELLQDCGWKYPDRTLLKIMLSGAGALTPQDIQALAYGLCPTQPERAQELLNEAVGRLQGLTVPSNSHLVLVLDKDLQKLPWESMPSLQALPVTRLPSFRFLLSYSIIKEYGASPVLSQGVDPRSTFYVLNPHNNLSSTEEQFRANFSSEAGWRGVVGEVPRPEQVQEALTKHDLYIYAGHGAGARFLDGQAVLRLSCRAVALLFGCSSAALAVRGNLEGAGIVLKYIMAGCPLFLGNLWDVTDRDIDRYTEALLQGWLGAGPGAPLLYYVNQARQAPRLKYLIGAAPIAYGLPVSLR
Method: Myc-Rad21 protein was prepared by using pCS2MT Rad21 plasmid ([…]) as the template and the TNT SP6 High-Yield Wheat Germ Protein Expression kit (Promega, Madison, Wis.). Myc-Rad21 protein was mixed with Separase with or without the presence of Sepin-1. The final concentration of Sepin-1 was 50 μM. The reaction mixture was incubated in a 37° C. water bath for 1 h. The cleavage of myc-Rad21 was immunoblotted with Rad21 pAb.

[6] = system: Molt4 cells; assay: Immunoblotting for apoptosis induction; assay type: cell-based, human; conditions: various concentrations of Sepin-1, 24 h, Western blot
Method: To determine the mechanism of cell growth inhibition induced by Sepin-1, Applicants performed immunoblotting to investigate if apoptosis is induced after Molt4 cells were treated with Sepin-1. Activation of caspase-3 and cleavage of poly(ADP-ribose) polymerase (Parp-1) are two commonly used parameters in determination of apoptosis. Applicants used Etoposide as a positive control, which is a well-known chemotherapy agent that induces DNA damage by interacting with topoisomerase II. […] In addition, Applicants observed that the effect of Sepin-1 on the activation of caspase-3 and degradation of Parp-1 is similar to that of Etoposide (FIG. 8F).
Preparation of protein samples and Western blot were performed as described previously (J Cell Biol, 2008, 183, 1019-1031; PLoS. ONE., 2013, 8, e69458).

## CC1(C)[N+]([O-])=c2ccc([N+](=O)[O-])cc2=[N+]1[O-] [Sepin-1, 2,2-dimethyl-5-nitro-2H-benzimidazole-1,3 dioxide]
[1]
  IC50: ≥ 1 µM
[2]
  inhibition of growth of xenograft MC1 tumors versus vehicle: 70%
[3]
  life span of treated mice: significant increase in the life span
[4]; Homo sapiens, MCF7, Breast, 72 h, read-out: IC50 growth inhibition
  IC50: 14.4 µM
[4]; MCF7 versus MCF10f
  sensitivity of MCF7 cells relative to MCF10f cells: over 3.3 times
[5]
  inhibition of Rad21 cleavage by activated Separase: could inhibit the Rad21 cleavage by activated Separase; also recorded: inhibits the cleavage of Separase substrate Rad21
[6]
  activation of caspase-3: caspase-3 proenzyme was induced and activated
  cleavage of poly(ADP-ribose) polymerase (Parp-1): Parp-1 cleavage
